Reference: patent US8192962B2, “Processes for detecting toxic substances” (Daikin Industries, Ltd., priority 2001, dated 2012)

Test system: Metabolism protein genes
Assay: DNA chip mRNA expression in yeast, metabolism protein genes (Table 7)
Format: cell-based, Saccharomyces cerevisiae S288C
Outline: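 Chemical exposure: 2 h, log-phase S. cerevisiae S288C, YPD, 25° C., dose set to inhibit growth without death. Profiling: mRNA labeled by reverse transcription with Cy3- or Cy5-dUTP, hybridized to whole-genome array. Output: fluorescence ratio against untreated culture.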

`C=CC=O` [(14), acrolein] was tested, and the “level of expressed mRNA in the presence/in the absence of chemical substance” value (yeast gene YKL060C) was 0.8, the “The level of expressed mRNA in the presence of chemical substance/The level of expressed mRNA in the absence of chemical substance” value (yeast gene YKL091C) was 1.5 and the “The level of expressed mRNA in the presence of chemical substance/The level of expressed mRNA in the absence of chemical substance” value (yeast gene YKL104C) was 0.8. The “level of expressed mRNA in the presence/in the absence of chemical substance” value (yeast gene YKL148C) was 0.8, the “The level of expressed mRNA in the presence of chemical substance/The level of expressed mRNA in the absence of chemical substance” value (yeast gene YKL152C) was 1.0 and the “level of expressed mRNA in the presence/in the absence of chemical substance” value (yeast gene YKL157W) was 0.8. For the same compound, the “The level of expressed mRNA in the presence of chemical substance/The level of expressed mRNA in the absence of chemical substance” value (yeast gene YKL213C) was 0.9, the “The level of expressed mRNA in the presence of chemical substance/The level of expressed mRNA in the absence of chemical substance” value (yeast gene YKL215C) was 1.0 and the “level of expressed mRNA in the presence/in the absence of chemical substance” value (yeast gene YKR034W) was 1.1. The “The level of expressed mRNA in the presence of chemical substance/The level of expressed mRNA in the absence of chemical substance” value (yeast gene YKR039W) was 1.2, the “The level of expressed mRNA in the presence of chemical substance/The level of expressed mRNA in the absence of chemical substance” value (yeast gene YLL058W) was 0.8 and the “level of expressed mRNA in the presence/in the absence of chemical substance” value (yeast gene YLR006C) was 1.0. For the same compound, the “level of expressed mRNA in the presence/in the absence of chemical substance” value (yeast gene YLR044C) was 0.5, the “level of expressed mRNA in the presence/in the absence of chemical substance” value (yeast gene YLR056W) was 0.7 and the “level of expressed mRNA in the presence/in the absence of chemical substance” value (yeast gene YLR058C) was 0.7. The “level of expressed mRNA in the presence/in the absence of chemical substance” value (yeast gene YLR081W) was 1.0, the “level of expressed mRNA in the presence/in the absence of chemical substance” value (yeast gene YLR089C) was 0.7 and the “The level of expressed mRNA in the presence of chemical substance/The level of expressed mRNA in the absence of chemical substance” value (yeast gene YLR180W) was 0.6. The “The level of expressed mRNA in the presence of chemical substance/The level of expressed mRNA in the absence of chemical substance” value (yeast gene YLR273C) was 1.3, the “level of expressed mRNA in the presence/in the absence of chemical substance” value (yeast gene YLR284C) was 1.3 and the “The level of expressed mRNA in the presence of chemical substance/The level of expressed mRNA in the absence of chemical substance” value (yeast gene YLR299W) was 1.3. For the same compound, the “The level of expressed mRNA in the presence of chemical substance/The level of expressed mRNA in the absence of chemical substance” value (yeast gene YLR300W) was 0.6, the “The level of expressed mRNA in the presence of chemical substance/The level of expressed mRNA in the absence of chemical substance” value (yeast gene YLR303W) was 3.8 and the “level of expressed mRNA in the presence/in the absence of chemical substance” value (yeast gene YLR304C) was 0.7. For the same compound, the “The level of expressed mRNA in the presence of chemical substance/The level of expressed mRNA in the absence of chemical substance” value (yeast gene YLR307W) was 1.9, the “The level of expressed mRNA in the presence of chemical substance/The level of expressed mRNA in the absence of chemical substance” value (yeast gene YLR348C) was 1.0 and the “level of expressed mRNA in the presence/in the absence of chemical substance” value (yeast gene YLR354C) was 0.9. For the same compound, the “level of expressed mRNA in the presence/in the absence of chemical substance” value (yeast gene YLR372W) was 0.6, the “level of expressed mRNA in the presence/in the absence of chemical substance” value (yeast gene YML022W) was 0.9 and the “The level of expressed mRNA in the presence of chemical substance/The level of expressed mRNA in the absence of chemical substance” value (yeast gene YML054C) was 2.1. For the same compound, the “The level of expressed mRNA in the presence of chemical substance/The level of expressed mRNA in the absence of chemical substance” value (yeast gene YML070W) was 1.3, the “The level of expressed mRNA in the presence of chemical substance/The level of expressed mRNA in the absence of chemical substance” value (yeast gene YML100W) was 1.2 and the “The level of expressed mRNA in the presence of chemical substance/The level of expressed mRNA in the absence of chemical substance” value (yeast gene YMR008C) was 0.7. The “level of expressed mRNA in the presence/in the absence of chemical substance” value (yeast gene YMR011W) was 0.6, the “level of expressed mRNA in the presence/in the absence of chemical substance” value (yeast gene YMR015C) was 0.8 and the “The level of expressed mRNA in the presence of chemical substance/The level of expressed mRNA in the absence of chemical substance” value (yeast gene YMR020W) was 1.1. For the same compound, the “The level of expressed mRNA in the presence of chemical substance/The level of expressed mRNA in the absence of chemical substance” value (yeast gene YMR081C) was 1.8, the “level of expressed mRNA in the presence/in the absence of chemical substance” value (yeast gene YMR083W) was 0.8 and the “The level of expressed mRNA in the presence of chemical substance/The level of expressed mRNA in the absence of chemical substance” value (yeast gene YMR105C) was 1.0. The “The level of expressed mRNA in the presence of chemical substance/The level of expressed mRNA in the absence of chemical substance” value (yeast gene YMR189W) was 1.6, the “level of expressed mRNA in the presence/in the absence of chemical substance” value (yeast gene YMR205C) was 0.5 and the “level of expressed mRNA in the presence/in the absence of chemical substance” value (yeast gene YMR261C) was 0.6. The “The level of expressed mRNA in the presence of chemical substance/The level of expressed mRNA in the absence of chemical substance” value (yeast gene YMR271C) was 1.8, the “The level of expressed mRNA in the presence of chemical substance/The level of expressed mRNA in the absence of chemical substance” value (yeast gene YMR296C) was 0.7 and the “level of expressed mRNA in the presence/in the absence of chemical substance” value (yeast gene YMR323W) was 1.2. The “The level of expressed mRNA in the presence of chemical substance/The level of expressed mRNA in the absence of chemical substance” value (yeast gene YNL012W) was 1.0, the “level of expressed mRNA in the presence/in the absence of chemical substance” value (yeast gene YNL025C) was 1.2 and the “The level of expressed mRNA in the presence of chemical substance/The level of expressed mRNA in the absence of chemical substance” value (yeast gene YNL037C) was 1.3. For the same compound, the “The level of expressed mRNA in the presence of chemical substance/The level of expressed mRNA in the absence of chemical substance” value (yeast gene YNL045W) was 0.8, the “The level of expressed mRNA in the presence of chemical substance/The level of expressed mRNA in the absence of chemical substance” value (yeast gene YNL104C) was 0.9 and the “The level of expressed mRNA in the presence of chemical substance/The level of expressed mRNA in the absence of chemical substance” value (yeast gene YNL106C) was 1.1. For the same compound, the “The level of expressed mRNA in the presence of chemical substance/The level of expressed mRNA in the absence of chemical substance” value (yeast gene YNL169C) was 0.9, the “level of expressed mRNA in the presence/in the absence of chemical substance” value (yeast gene YNL192W) was 0.7 and the “The level of expressed mRNA in the presence of chemical substance/The level of expressed mRNA in the absence of chemical substance” value (yeast gene YNL231C) was 0.9. The “The level of expressed mRNA in the presence of chemical substance/The level of expressed mRNA in the absence of chemical substance” value (yeast gene YNL322C) was 1.2, the “The level of expressed mRNA in the presence of chemical substance/The level of expressed mRNA in the absence of chemical substance” value (yeast gene YNL331C) was 7.5 and the “The level of expressed mRNA in the presence of chemical substance/The level of expressed mRNA in the absence of chemical substance” value (yeast gene YNL332W) was 3.0. For the same compound, the “The level of expressed mRNA in the presence of chemical substance/The level of expressed mRNA in the absence of chemical substance” value (yeast gene YNR002C) was 1.2, the “The level of expressed mRNA in the presence of chemical substance/The level of expressed mRNA in the absence of chemical substance” value (yeast gene YNR019W) was 1.0 and the “The level of expressed mRNA in the presence of chemical substance/The level of expressed mRNA in the absence of chemical substance” value (yeast gene YNR033W) was 0.9. The “The level of expressed mRNA in the presence of chemical substance/The level of expressed mRNA in the absence of chemical substance” value (yeast gene YNR059W) was 1.0, the “The level of expressed mRNA in the presence of chemical substance/The level of expressed mRNA in the absence of chemical substance” value (yeast gene YOL058W) was 1.5 and the “level of expressed mRNA in the presence/in the absence of chemical substance” value (yeast gene YOL086C) was 0.6. The “level of expressed mRNA in the presence/in the absence of chemical substance” value (yeast gene YOL108C) was 0.9, the “level of expressed mRNA in the presence/in the absence of chemical substance” value (yeast gene YOL116W) was 0.9 and the “The level of expressed mRNA in the presence of chemical substance/The level of expressed mRNA in the absence of chemical substance” value (yeast gene YOL126C) was 1.2. The “The level of expressed mRNA in the presence of chemical substance/The level of expressed mRNA in the absence of chemical substance” value (yeast gene YOL151W) was 4.0, the “The level of expressed mRNA in the presence of chemical substance/The level of expressed mRNA in the absence of chemical substance” value (yeast gene YOL153C) was 1.5 and the “level of expressed mRNA in the presence/in the absence of chemical substance” value (yeast gene YOL156W) was 0.9. For the same compound, the “The level of expressed mRNA in the presence of chemical substance/The level of expressed mRNA in the absence of chemical substance” value (yeast gene YOL165C) was 9.1, the “level of expressed mRNA in the presence/in the absence of chemical substance” value (yeast gene YOR002W) was 0.9 and the “level of expressed mRNA in the presence/in the absence of chemical substance” value (yeast gene YOR085W) was 0.7. The “The level of expressed mRNA in the presence of chemical substance/The level of expressed mRNA in the absence of chemical substance” value (yeast gene YOR099W) was 0.7, the “level of expressed mRNA in the presence/in the absence of chemical substance” value (yeast gene YOR103C) was 1.2 and the “level of expressed mRNA in the presence/in the absence of chemical substance” value (yeast gene YOR108W) was 0.9. The “level of expressed mRNA in the presence/in the absence of chemical substance” value (yeast gene YOR128C) was 0.7, the “The level of expressed mRNA in the presence of chemical substance/The level of expressed mRNA in the absence of chemical substance” value (yeast gene YOR130C) was 1.3 and the “level of expressed mRNA in the presence/in the absence of chemical substance” value (yeast gene YOR142W) was 0.8. For the same compound, the “level of expressed mRNA in the presence/in the absence of chemical substance” value (yeast gene YOR176W) was 0.8, the “level of expressed mRNA in the presence/in the absence of chemical substance” value (yeast gene YOR178C) was 1.0 and the “level of expressed mRNA in the presence/in the absence of chemical substance” value (yeast gene YOR251C) was 1.1. The “The level of expressed mRNA in the presence of chemical substance/The level of expressed mRNA in the absence of chemical substance” value (yeast gene YOR336W) was 1.1, the “The level of expressed mRNA in the presence of chemical substance/The level of expressed mRNA in the absence of chemical substance” value (yeast gene YOR347C) was 0.9 and the “level of expressed mRNA in the presence/in the absence of chemical substance” value (yeast gene YOR348C) was 1.2. For the same compound, the “The level of expressed mRNA in the presence of chemical substance/The level of expressed mRNA in the absence of chemical substance” value (yeast gene YPL017C) was 1.6, the “level of expressed mRNA in the presence/in the absence of chemical substance” value (yeast gene YPL028W) was 0.8 and the “level of expressed mRNA in the presence/in the absence of chemical substance” value (yeast gene YPL057C) was 0.7. The “level of expressed mRNA in the presence/in the absence of chemical substance” value (yeast gene YPL135W) was 1.1, the “level of expressed mRNA in the presence/in the absence of chemical substance” value (yeast gene YPL148C) was 1.6 and the “The level of expressed mRNA in the presence of chemical substance/The level of expressed mRNA in the absence of chemical substance” value (yeast gene YPR026W) was 1.5. The “level of expressed mRNA in the presence/in the absence of chemical substance” value (yeast gene YPR113W) was 1.3, the “level of expressed mRNA in the presence/in the absence of chemical substance” value (yeast gene YPR165W) was 1.0 and the “The level of expressed mRNA in the presence of chemical substance/The level of expressed mRNA in the absence of chemical substance” value (yeast gene YPR167C) was 4.2. The “level of expressed mRNA in the presence/in the absence of chemical substance” value (yeast gene YPR183W) was 0.7.
